The test system of assay [1] is B. subtilis. Nature of the assay: MIC determination, B. subtilis. The format is cell-based, Bacillus subtilis. The method, then:
(§1) Minimal Inhibitory Concentration (MIC) determinations. […] Each drug is evaluated at five concentrations, with five data points at each dilution. MIC values (μg/ml) were determined against actively growing cultures in Heart-Brain Infusion (HBI) medium. Cell growth in cultures supplemented with a test compound was calculated as a percent of control at OD 600 nm after 16 to 18 hours at 37° C. This plate format conserves test compound and provides precise, quantitative data with low standard deviation determinations.

For assay [2], the system named is E. fecalis. Briefly: MIC determination, E. fecalis. Type of assay: cell-based, Enterococcus fecalis. The method, then:
(§2) Minimal Inhibitory Concentration (MIC) determinations. […] Each drug is evaluated at five concentrations, with five data points at each dilution. MIC values (μg/ml) were determined against actively growing cultures in Heart-Brain Infusion (HBI) medium. Cell growth in cultures supplemented with a test compound was calculated as a percent of control at OD 600 nm after 16 to 18 hours at 37° C.

The subject of assay [3] is E. coli. Briefly: MIC determination, E. coli. The format is cell-based, Escherichia coli. On the procedure:
as §1

Assay [4] relates to S. aureus (Smith). Nature of the assay: MIC determination, S. aureus (Smith). Type of assay: cell-based, Staphylococcus aureus. On the procedure: as §1
In assay [5] the test system is E. fecium. Nature of the assay: MIC determination, E. fecium. Type of assay: cell-based, Enterococcus fecium. The method, then:
as §2

Assay [6] deals with T1, B. subtilis Pol IIIC (Bacillus subtilis, UniProt P13267).
T1 construct: made in house
T1 sequence (P13267 whole entry): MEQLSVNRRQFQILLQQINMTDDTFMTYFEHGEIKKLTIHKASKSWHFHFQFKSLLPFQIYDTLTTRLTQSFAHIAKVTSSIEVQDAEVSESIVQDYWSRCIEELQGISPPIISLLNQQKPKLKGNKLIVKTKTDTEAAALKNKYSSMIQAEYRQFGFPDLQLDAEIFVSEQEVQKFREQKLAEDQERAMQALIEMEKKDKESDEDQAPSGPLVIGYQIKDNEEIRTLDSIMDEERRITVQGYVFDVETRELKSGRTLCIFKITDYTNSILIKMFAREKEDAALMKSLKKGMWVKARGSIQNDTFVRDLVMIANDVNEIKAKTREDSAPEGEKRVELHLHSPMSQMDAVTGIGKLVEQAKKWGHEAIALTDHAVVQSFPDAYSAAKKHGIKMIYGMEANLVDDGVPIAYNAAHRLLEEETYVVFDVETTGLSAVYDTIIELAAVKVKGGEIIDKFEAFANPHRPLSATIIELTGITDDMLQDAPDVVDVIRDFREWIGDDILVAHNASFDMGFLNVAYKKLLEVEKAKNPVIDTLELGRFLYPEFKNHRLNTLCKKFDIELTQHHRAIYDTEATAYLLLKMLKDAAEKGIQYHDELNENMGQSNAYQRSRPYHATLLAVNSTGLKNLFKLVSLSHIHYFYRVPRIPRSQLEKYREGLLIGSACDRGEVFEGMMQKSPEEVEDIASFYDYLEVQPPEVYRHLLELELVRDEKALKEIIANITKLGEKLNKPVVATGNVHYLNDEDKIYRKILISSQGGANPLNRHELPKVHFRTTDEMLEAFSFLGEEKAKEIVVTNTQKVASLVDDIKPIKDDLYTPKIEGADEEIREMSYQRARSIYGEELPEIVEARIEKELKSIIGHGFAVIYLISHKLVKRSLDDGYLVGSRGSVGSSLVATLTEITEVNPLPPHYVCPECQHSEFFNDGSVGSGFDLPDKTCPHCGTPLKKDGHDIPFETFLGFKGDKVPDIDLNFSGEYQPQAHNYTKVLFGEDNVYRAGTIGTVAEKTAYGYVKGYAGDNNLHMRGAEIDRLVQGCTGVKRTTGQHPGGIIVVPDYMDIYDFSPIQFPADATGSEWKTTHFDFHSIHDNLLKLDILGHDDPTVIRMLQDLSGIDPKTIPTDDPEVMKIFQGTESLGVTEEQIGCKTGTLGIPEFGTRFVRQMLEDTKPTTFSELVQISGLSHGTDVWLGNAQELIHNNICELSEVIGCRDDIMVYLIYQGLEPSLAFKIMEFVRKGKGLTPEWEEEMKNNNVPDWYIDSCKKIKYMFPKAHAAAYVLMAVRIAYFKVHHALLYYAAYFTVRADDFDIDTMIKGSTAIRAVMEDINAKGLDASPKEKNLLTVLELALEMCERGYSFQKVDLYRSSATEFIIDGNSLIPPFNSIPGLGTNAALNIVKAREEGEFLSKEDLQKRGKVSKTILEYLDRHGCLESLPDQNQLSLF
Nature of the assay: Polymerase IIIC (Pol IIIC) assay, determination of Ki values. Type of assay: biochemical. Conditions: Ki = concentration that reduces control polymerase activity by 50 percent. The method, then: Polymerase IIIC (Pol IIIC) assay. DNA polymerase activity (or inhibition thereof) was measured in a 96-well plate format. B. subtilis Pol IIIC was isolated as described by Hammond and Brown (Protein Expr. Purif., 3: 65-70 (1992)). Each 25 μl assay contained 30 mM Tris, pH 7.5, 10 mM magnesium acetate, 4 mM dithiothreitol, 20% glycerol, with 25 μM dATP, dCTP, dGTP and 10 μM dTTP (3H-labelled at 1.44 Ci/mmole) and 0.4 mg/ml activated calf thymus DNA as substrates, as described previously (see Barnes et al, op. cit). Assays were initiated by the addition of 0.025 to 0.06 units of enzyme 1 unit is the amount required to incorporate 250 pmoles of [^3H] dTMP in a standard assay), incubated for 10 minutes at 30° C. and terminated by the addition of 200 μl of cold 10% trichloroacetic acid (TCA), 10 mM sodium pyrophosphate. Precipitated labeled DNA was collected on glass fiber filter plates, washed, dried, and counted in a liquid scintillation counter.
Determination of Ki values. DNA polymerase activity was measured in a 96-well plate format in the absence of dGTP or dATP, depending on the structure of the test compound. Each 25 μl assay contained 30 mM Tris, pH 7.5, 10 mM magnesium acetate, 4 mM dithiothreitol, 20% glycerol, with 25 μM dATP, dCTP, and 10 μM dTTP (3H-labelled at 1.44 Ci/mmole) and 0.4 mg/ml activated calf thymus DNA as substrates, as described previously. To each well were added 2 μl of compound solution to give final concentrations ranging from 20-0.027 μg/ml in the assay. Assays were initiated by the addition of 0.025 to 0.06 units of enzyme (1 unit is the amount required to incorporate 250 pmoles of [^3H] dTMP in a standard assay), incubated for 10 minutes at 30° C. and terminated by the addition of 200 μl of cold 10% trichloroacetic acid, 10 mM sodium pyrophosphate. Precipitated labeled DNA was collected on glass fiber filter plates, washed, dried, and counted in a liquid scintillation counter. Ki is the concentration of test compound that reduces the control polymerase mc activity by 50 percent.

Assay [7] relates to S. aureus. Nature of the assay: MIC determination, S. aureus. Type of assay: cell-based, Staphylococcus aureus. On the procedure: as §1
The test system of assay [8] is Enterococcus faecalis (ATCC 29212). Briefly: In vivo efficacy of Compound 70 in mouse model, Enterococcus faecalis. Conditions: mice, 3 × 10^7 CFU/mouse +5% Mucin; positive control, 100 mg/kg, t = 0. On the procedure: (§3) Swiss Webster mice, ca. 20 g each, were infected with Staphylococcus aureus (Smith strain) by the intraperitoneal route. Test compounds (2, 4, 5, 6, 7, 8, 10, 12) were dissolved in 10% dimethylsulfoxide in peanut oil to a concentration of 2 mg/ml. Vancomycin was used as positive control drug (i.e., protection from lethal infection). Fifteen minutes after infection, test compounds, vancomycin, or vehicle alone were given intraperitoneally to groups of five mice each. Animals were monitored for three days, and the number of mice surviving was tabulated for each treatment.
(§4) Using the same basic procedure as described above, the in vivo efficacy of Compound 70 was also evaluated at various doses in mice infected with S. aureaus (Smith), MRSA 1094, Enterococcus faecalis, or vancomycin-resistant Enterococcus faecalis strain VRE 700802. […] Negative controls were mice infected that received no treatment. Mucin was employed as an adjuvant to facilitate bacterial infection in mice, where indicated.

Assay [9] relates to MSSA108 (methicillin sensitive S. aureus strain). Nature of the assay: MIC determination, MSSA108. Type of assay: cell-based. Conditions: Staphylococcus aureus, read-out: MIC (μg/ml) MSSA108. The method, then: as §1
Compounds were also tested for antibacterial activity against certain clinically relevant strains, e.g., methicillin sensitive (MSSA) and methicillin resistant (MRSA) strains of Staphylococcus aureus.

Assay [10] relates to Staphylococcus aureus (Smith strain). Briefly: Protection of mice from lethal intraperitoneal infection, compound given intraperitoneally. Type of assay: in vivo. The settings on record: 15 minutes after infection. The method, then: FIG. 1B is a bar graph showing number of survivors in each group of five mice at 24 hours after intraperitoneal infection with 1×10^8 colony forming units (CFU) of Staphylococcus aureus (Smith strain) and followed 15 minutes post infection by administration of Compound 2 at a dose of 0 (Vehicle Control), 1, 3, and 10 mg of compound per kg of body weight. Vancomycin at a dose of 10 mg/kg of body weight served as a positive control for antibiotic activity. See text for details.
FIG. 2B is a bar graph showing number of survivors of a group of five mice at 24 hours after intraperitoneal infection with Staphylococcus aureus (Smith strain) as in FIG. 1B, except that Compound 10 was administered to each animal at 0, 0.1, 0.3, 1.0, 3.0, and 10 mg/kg body weight at 15 minutes post infection. Controls were the same as in FIG. 1B. See text for details.
FIG. 3B is a bar graph showing number of survivors in each group of five mice at 24 hours after intraperitoneal infection with Staphylococcus aureus (Smith strain) as in FIG. 1, except that 15 minutes after infection, the mice in each group received a dose of 0.5 mg/kg of body weight of compound 10, 4, 5, 6, 7, 8, or 12. Controls were the same as in FIG. 1. See text for details.
as §3

In assay [11] the test system is vancomycin-resistant Enterococcus faecalis strain VRE 700802. Briefly: In vivo efficacy of Compound 70 in mouse model, VRE 700802. Conditions: mice, 3 × 10^8 CFU/mouse +5% Mucin; positive control, 100 mg/kg, t = 0. The method, then: as §3, §4
Assay [12] concerns enterococci or staphylococci strains, including MRSA and VRE strains. Nature of the assay: In vivo activity of Compound 70 against intraperitoneal challenge, overall statement. Conditions: mice; administration from distant parenteral sites (i.e., iv, sc, or im). On the procedure: as §4
Where [13] appears, read: HBI medium, 16 to 18 hours at 37° C.
[14] abbreviates: Swiss Webster mice, dosage range 1-10 mg/kg body weight.

Values after ≈ are worked out from the molar mass of the structure shown. Marks after values point to notes of the source that are not given here.

For the molecule `CCc1cc(Nc2cc(=O)n(CCCCO)c(=O)[nH]2)ccc1C` [HB-EMAU, reference compound], in [1] (setting [13]), the “MIC (μg/ml) B. subtilis” value amounted to 1.25 µg/mL (≈ 3.94 µM). In assay [2] (setting [13]), the “MIC (μg/ml) E. fecalis” value worked out at 5 µg/mL (≈ 15.8 µM). For the same molecule, in [3] (setting [13]), the “MIC (μg/ml) E. coli” value was over 80 µg/mL. The “MIC (μg/ml) S. aureus (Smith)” value in assay [4] (setting [13]) came out at 5 µg/mL (≈ 15.8 µM). The “MIC (μg/ml) E. fecium” value in [5] (setting [13]) was 5 µg/mL (≈ 15.8 µM). The Ki in [6] stood at 0.066 µM. For the same molecule, the “MIC (μg/ml) S. aureus” value in assay [7] (setting [13]) came to 10 µg/mL (≈ 31.5 µM).
Regarding `CN[C@H](CC(C)C)C(=O)N[C@H]1C(=O)N[C@@H](CC(N)=O)C(=O)N[C@H]2C(=O)N[C@H]3C(=O)N[C@H](C(=O)N[C@H](C(=O)O)c4cc(O)cc(O)c4-c4cc3ccc4O)[C@H](O)c3ccc(c(Cl)c3)Oc3cc2cc(c3O[C@@H]2O[C@H](CO)[C@@H](O)[C@H](O)[C@H]2O[C@H]2C[C@](C)(N)[C@H](O)[C@H](C)O2)Oc2ccc(cc2Cl)[C@H]1O` [vancomycin], the “% Survival at 72 hours” value in [8] is 100% (10/10)**.
Take `CCc1cc(Nc2cc(=O)n(CCCCN3CCN(c4cc5c(cc4F)c(=O)c(C(=O)O)cn5CC)CC3)c(=O)[nH]2)ccc1C` [Compound 1, 3-{4-[1-(1-ethyl-3-carboxy-4-oxo-6-fluoro-7-quinolyl)-4-piperazinyl]butyl}-6-(3-ethyl-4-methylanilino)uracil]: the MIC in assay [9] was 0.313 µg/mL (≈ 0.506 µM); in assay [4] (Staphylococcus aureus, table of clinically relevant strains, read-out: MIC (μg/ml) S. aureus (Smith)), 0.313 µg/mL (≈ 0.506 µM); in assay [7] (Staphylococcus aureus, table of clinically relevant strains, read-out: MIC (μg/ml) S. aureus), 0.313 µg/mL (≈ 0.506 µM).
Take `CCn1cc(C(=O)O)c(=O)c2cc(F)c(N3CCNCC3)cc21` [nflxn, norfloxacin]: in assay [6], the “Ki (μM) Pol IIIC” value is “inactive”.
For the molecule `CCc1cc(Nc2ccc(NC(=O)N3CCN(c4cc5c(cc4F)c(=O)c(C(=O)O)cn5CC)CC3)c(=O)[nH]2)ccc1C` [Compound 77, 3-{[1-(1-ethyl-3-carboxy-4-oxo-6-fluoro-7-quinolyl)-4-piperazinyl]carboxamido}-6-(3-ethyl-4-methylanilino)-2-pyridone], the affinity in [6] (second table), expressed as Ki, was 8 µM.
For the molecule `CCc1cc(Nc2cc(=O)n(CCCCN3CCN(c4cc5c(cc4F)c(=O)c(C(=O)O)cn5C4CC4)CC3)c(=O)[nH]2)ccc1C` [Compound 2, 3-{4-[1-(1-cyclopropyl-3-carboxy-4-oxo-6-fluoro-7-quinolyl)-4-piperazinyl]butyl}-6-(3-ethyl-4-methylanilino)uracil], the “protection of infected mice (group of five)” value in [10] (setting [14]) is on record as “protection was afforded all five infected mice”.
Consider “3-{5-[1-(1-ethyl-3-carboxy-4-oxo-6,8-difluoro-7-quinolyl)-3-(1,3-diazabicyclononyl)]pentyl}-6-(3-ethyl-4-methylanilino)uracil [Compound 88]”, for which, in assay [1] (second table), the “MIC (μg/ml) B. subtilis” value was found to be 0.625 µg/mL. For the same molecule, in [2] (second table), the “MIC (μg/ml) E. fecalis” value came to 2.5 µg/mL. Moreover, the “MIC (μg/ml) E. coil” value in [3] (second table) was over 20 µg/mL. Also, in [4] (second table), the “MIC (μg/ml) S. a. (Smith)” value turned out to be 1.25 µg/mL. The “MIC (μg/ml) E. fecium” value in assay [5] (second table) turned out to be 5 µg/mL. For the same molecule, in assay [7] (second table), the “MIC (μg/ml) S. aureus” value stood at 1.25 µg/mL.
Consider `O=C(O)c1cn(C2CC2)c2cc(N3CCNCC3)c(F)cc2c1=O` [cflxn, ciprofloxacin], for which the “% Survival at 72 hours” value in assay [11] is 90% (9/10)**. Moreover, the “Ki (μM) Pol IIIC” value in [6] was “inactive”.
As for `CCc1cc(Nc2cc(=O)n(CCCCN3CCN(c4cc5c(cc4F)c(=O)c(C(=O)O)cn5C4CC4)CC3)c(=O)[nH]2)ccc1C.CS(=O)(=O)O` [Compound 10, 3-{4-[1-(1-cyclopropyl-3-carboxy-4-oxo-6-fluoro-7-quinolyl)-4-piperazinyl]butyl}-6-(3-ethyl-4-methylanilino)uracil methanesulfonate], in assay [10] (dose 0.3 mg per kg body weight), the “infected mice protected from death (group of five)” value is reported as “one of five”. In addition, the results for the “protection of infected mice (group of five)” value in assay [10] (dose of 1 mg/kg or higher) and in [10] (setting [14]) were “complete protection” and “provided protection in the same dosage range as Compound 2”, respectively.
As to `CCc1cc(Nc2cc(=O)n(CCCCN3CCN(c4c(F)cc5c(=O)c(C(=O)O)cn(C6CC6)c5c4F)CC3C)c(=O)[nH]2)ccc1C` (centres unmarked) [Compound 70, 3-{4-[1-(1-cyclopropyl-3-carboxy-4-oxo-6,8-difluoro-7-quinolyl)-4-(3-methylpiperazinyl)]butyl}-6-(3-ethyl-4-methylanilino)uracil], the “activity against intraperitoneal challenge” value in [12] is recorded as “dose-related activity”.
